What was measured:
[1] = target: Human immunodeficiency virus type 1 integrase (Human immunodeficiency virus 1, UniProt Q7ZJM1); experiment: Inhibition of HIV-1 integrase after 1 hr by strand transfer activity assay
[2] = system: Human immunodeficiency virus 1; experiment: Antiviral activity against HIV-1 infected in human TZM-bl cells after 40 to 48 hrs by beta-galactosidase assay; assay type: functional, organism-based; settings: Human immunodeficiency virus 1, TZM-bl

Chain of Human immunodeficiency virus type 1 integrase (Q7ZJM1 whole entry): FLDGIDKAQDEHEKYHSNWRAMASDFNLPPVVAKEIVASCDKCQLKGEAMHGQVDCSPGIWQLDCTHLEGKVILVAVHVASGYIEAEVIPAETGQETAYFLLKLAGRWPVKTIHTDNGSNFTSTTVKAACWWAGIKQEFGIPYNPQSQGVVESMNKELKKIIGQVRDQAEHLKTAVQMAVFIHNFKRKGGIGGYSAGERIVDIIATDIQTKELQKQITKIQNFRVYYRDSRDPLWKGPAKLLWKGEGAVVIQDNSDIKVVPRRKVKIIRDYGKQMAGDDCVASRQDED

IC50 [1] | EC50 [2] | SMILES
0.9 µM | 1.13 µM | COc1c(C(=O)N2CCN(CCCNC(=O)c3cc(O)c(O)c(O)c3)CC2)nc(Cc2ccccc2)n(C)c1=O
2.4 µM | 4.27 µM | COc1c(C(=O)N2CCN(CCCNC(=O)c3cc(O)c(O)c(O)c3)CC2)nc(Cc2ccc(Cl)cc2)n(C)c1=O
18.9 µM | 4.39 µM | COc1c(C(=O)N2CCN(CCCNC(=O)c3cc(O)c(O)c(O)c3)CC2)nc(Cc2ccc(F)cc2)n(C)c1=O
3.5 µM | 2.76 µM | COc1c(C(=O)N2CCN(CCCNC(=O)c3cc(O)c(O)c(O)c3)CC2)nc(Cc2ccc(C)cc2)n(C)c1=O
22.4 µM | – | COc1c(C(=O)N2CCN(CCCNC(=O)c3cc(O)c(O)c(O)c3)CC2)nc(Cc2ccc(Cl)c(Cl)c2)n(C)c1=O
18.6 µM | – | COc1c(C(=O)N2CCN(CCNC(=O)c3cc(O)c(O)c(O)c3)CC2)nc(Cc2ccccc2)n(C)c1=O
2.5 µM | – | COc1c(C(=O)N2CCN(CCNC(=O)c3cc(O)c(O)c(O)c3)CC2)nc(Cc2ccc(F)cc2)n(C)c1=O
0.7 µM | – | COc1c(C(=O)N2CCN(CCNC(=O)c3cc(O)c(O)c(O)c3)CC2)nc(Cc2ccc(O)cc2)n(C)c1=O
> 100 µM | – | COc1c(C(=O)N2CCN(CCCNC(=O)c3ccc(O)c(O)c3)CC2)nc(Cc2ccccc2)n(C)c1=O
> 100 µM | – | COc1c(C(=O)N2CCN(CCCNC(=O)c3ccc(O)c(O)c3)CC2)nc(Cc2ccc(F)cc2)n(C)c1=O
> 100 µM | – | COc1c(C(=O)N2CCN(CCCNC(=O)c3ccc(O)c(O)c3)CC2)nc(Cc2ccc(O)cc2)n(C)c1=O
